# Values of other authors as cited in patent publication US8722114B2, “Compositions and methods for increasing human growth hormone levels” (Quality IP Holdings, LLC, priority 2012, dated 2014).
# How the values were obtained:
# [1] = tested on: hGH
# [2] = subcutaneous injection of 0.06 IU, GH deficient subjects
compound,measurement,setting,value
N=C(N)NCCC[C@H](N)C(=O)O [arginine],Elevation of serum hGH levels,"[1]; 30 g, intravenous, in males",8.6 fold
same,Increase of hGH levels,[1]; intravenous infusion of 183 mg/kg body weight in females,> 20 fold
"HGH: human growth hormone, injected subcutaneously in a cited study",Mean levels of GH reached,[2],0.4 ng/mL
